From patent US9365511B2, “Biphenyl-ethyl-pyrrolidine derivatives as histamine H3 receptor modulators for the treatment of cognitive disorders” (Arena Pharmaceuticals, Inc., priority 2013, dated 2016) come the findings set out here.

Entries after “also recorded” stand apart in the source; their conditions may differ.

Sequence of human H3 receptor (Q9Y5N1 whole entry): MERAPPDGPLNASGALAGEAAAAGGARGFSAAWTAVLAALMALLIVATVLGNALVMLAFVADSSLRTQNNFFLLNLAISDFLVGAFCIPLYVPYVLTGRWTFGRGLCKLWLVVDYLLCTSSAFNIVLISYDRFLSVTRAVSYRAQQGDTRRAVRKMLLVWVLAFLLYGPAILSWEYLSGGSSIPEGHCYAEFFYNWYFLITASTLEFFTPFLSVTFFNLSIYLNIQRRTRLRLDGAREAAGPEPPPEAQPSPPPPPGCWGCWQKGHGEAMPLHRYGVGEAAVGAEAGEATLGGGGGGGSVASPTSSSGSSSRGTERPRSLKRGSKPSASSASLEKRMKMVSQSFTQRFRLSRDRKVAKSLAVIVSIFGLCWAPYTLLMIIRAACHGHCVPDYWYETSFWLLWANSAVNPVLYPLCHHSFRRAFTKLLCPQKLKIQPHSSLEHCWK

The target of the first assay is human H3 receptor (Homo sapiens (Human), UniProt Q9Y5N1). As to the kind of experiment: Human H3 receptor HTRF cAMP assay. The format is cell-based. The conditions noted are these: HEK293 cells expressing the human H3 receptor, forskolin 2 μM; read-out: IC50 H3R. From the text:
Homogeneous time-resolved fluorescence assays (HTRF®, Cisbio) detect levels of cAMP in lysed cell preparations using a europium or terbium cryptate-labeled anti-cAMP antibody and fluorophore-labeled cAMP (cAMP-d2). In the absence of exogenous cAMP, the anti-cAMP antibody binds to cAMP-d2. Photoexcitation of the cryptate donor results in a combination of cryptate emission at 620 nm and fluorescence resonance energy transfer (FRET) from the cryptate to the acceptor d2 fluorophore, which then fluoresces at 665 nm. The 620/665 nm emission ratio is monitored. In the presence of exogenous cAMP, which competes with cAMP-d2 for binding to the anti-cAMP antibody, FRET is decreased and the […], providing a sensitive and accurate means to measure cAMP levels in biological assays.
Compounds of the present invention were evaluated using the human H3 receptor (H3R) HTRF cAMP assay. In this assay, HEK293 cells expressing the human H3 receptor were suspended in PBS containing 100 μM IBMX and plated into 384-well assay plates (Perkin Elmer Proxiplate 384-Plus; 15,000 cells per well; 5 μL plating volume) and allowed to equilibrate for an hour. Test compounds were serially diluted in 100% DMSO and then further diluted in PBS containing forskolin (2 μM). Test compounds (5 μL) were then added to the assay plate and the mixture was incubated for 1 hour. HTRF assay reagents (Cisbio, Dynamic 2 cAMP Kit), cAMP-d2 and cryptate-labeled anti-cAMP antibody, are mixed with cell lysis buffer and added to the assay plate. After 1-hour incubation with these reagents, the assay plate was read on an HTRF-compatible microplate reader (Perkin Elmer EnVision or BMG Pherastar). A cAMP standard curve was included on each assay plate and HTRF emission ratios for test compounds were fit to this curve to generate accurate measures of cAMP levels in each test well.
On the technique in general: Time-resolved FRET reads energy transfer from a long-lived donor to a nearby acceptor.
Turning to `C[C@@H]1CCCN1CCc1ccc(-c2ccc(CCC(=O)NC(C)(C)C(=O)OC(C)(C)C)cc2)cc1` [Compound 12, (R)-tert-Butyl 2-Methyl-2-(3-(4′-(2-(2-methylpyrrolidin-1-yl)ethyl)biphenyl-4-yl)propanamido)propanoate], the IC50 came to 0.95 nM.
Turning to `C[C@@H]1CCCN1CCc1ccc(-c2ccc(C(C)(C)C(=O)O)cc2)cc1` [Compound 10, (R)-2-Methyl-2-(4′-(2-(2-methylpyrrolidin-1-yl)ethyl)biphenyl-4-yl)propanoic Acid], the IC50 was 3.1 nM.
As to `COC(=O)CNC(=O)CCc1ccc(-c2ccc(CCN3CCC[C@H]3C)cc2)cc1` [Compound 24, (R)-Methyl 2-(3-(4′-(2-(2-Methylpyrrolidin-1-yl)ethyl)biphenyl-4-yl)propanamido)acetate], the IC50 was determined as 0.99 nM.
Still for that read-out and setting: under `C[C@@H]1CCCN1CCc1ccc(-c2ccc(C(=O)NCCC(=O)O)cc2)cc1` [Compound 43, (R)-3-(4′-(2-(2-Methylpyrrolidin-1-yl)ethyl)biphenyl-4-ylcarboxamido)propanoic Acid] stands 2.5 nM; under `CCOC(=O)C1CCN(C(=O)CCc2ccc(-c3ccc(CCN4CCC[C@H]4C)cc3)cc2)CC1` [Compound 35, (R)-Ethyl 1-(3-(4′-(2-(2-Methylpyrrolidin-1-yl)ethyl)biphenyl-4-yl)propanoyl)piperidine-4-carboxylate], 0.96 nM; under `COC(=O)C1(c2ccc(-c3ccc(CCN4CCC[C@H]4C)cc3)cc2)CCCC1` [Compound 25, (R)-Methyl 1-(4′-(2-(2-Methylpyrrolidin-1-yl)ethyl)biphenyl-4-yl)cyclopentanecarboxylate], 3.3 nM.
On the same count and under the same terms, under `C[C@@H]1CCCN1CCc1ccc(-c2ccc(CC(=O)O)cc2)cc1` [Compound 2, (R)-2-(4′-(2-(2-Methylpyrrolidin-1-yl)ethyl)biphenyl-4-yl)acetic Acid] stands 8.1 nM; under `COC(=O)CCCNC(=O)C1(c2ccc(-c3ccc(CCN4CCC[C@H]4C)cc3)cc2)CCCC1` [Compound 16, (R)-Methyl 4-(1-(4′-(2-(2-Methylpyrrolidin-1-yl)ethyl)biphenyl-4-yl)cyclopentanecarboxamido)butanoate], 1.5 nM.
Still for that read-out and setting: under `CCOC(=O)COCc1ccc(-c2ccc(CCN3CCC[C@H]3C)cc2)cc1` [Compound 4, (R)-Ethyl 2-((4′-(2-(2-Methylpyrrolidin-1-yl)ethyl)biphenyl-4-yl)methoxy)acetate] stands 0.67 nM.
As for `COC(=O)CNC(=O)C1(c2ccc(-c3ccc(CCN4CCC[C@H]4C)cc3)cc2)CCCC1` [Compound 27, (R)-Methyl 2-(1-(4′-(2-(2-Methylpyrrolidin-1-yl)ethyl)biphenyl-4-yl)cyclopentanecarboxamido)acetate], the IC50 was 1.9 nM.
Still for that read-out and setting: under `C[C@@H]1CCCN1CCc1ccc(-c2ccc(CCCC(=O)O)cc2)cc1` [Compound 45, (R)-4-(4′-(2-(2-Methylpyrrolidin-1-yl)ethyl)biphenyl-4-yl)butanoic Acid] stands 0.97 nM; under `C[C@@H]1CCCN1CCc1ccc(-c2ccc(C(=O)O)cc2)cc1` [Compound 1, (R)-4′-(2-(2-Methylpyrrolidin-1-yl)ethyl)biphenyl-4-carboxylic Acid], 3.8 nM.
On the same count and under the same terms, under `C[C@@H]1CCCN1CCc1ccc(-c2ccc(COCC(=O)O)cc2)cc1` [Compound 5, (R)-2-((4′-(2-(2-Methylpyrrolidin-1-yl)ethyl)biphenyl-4-yl)methoxy)acetic Acid] stands 5.5 nM; under `C[C@@H]1CCCN1CCc1ccc(-c2ccc(CCc3nnn[nH]3)cc2)cc1` [Compound 44, (R)-5-(2-(4′-(2-(2-Methylpyrrolidin-1-yl)ethyl)biphenyl-4-yl)ethyl)-1H-tetrazole], 6.9 nM.
Turning to `C[C@@H]1CCCN1CCc1ccc(-c2ccc(CCC(=O)NCC(=O)OC(C)(C)C)cc2)cc1` [Compound 26, (R)-tert-Butyl 2-(3-(4′-(2-(2-Methylpyrrolidin-1-yl)ethyl)biphenyl-4-yl)propanamido)acetate], the IC50 turned out to be 3.8 nM.
For the compound `C[C@H](NC(=O)CCc1ccc(-c2ccc(CCN3CCC[C@H]3C)cc2)cc1)C(=O)O` [Compound 18, (S)-2-(3-(4′-(2-((R)-2-methylpyrrolidin-1-yl)ethyl)biphenyl-4-yl)propanamido)propanoic acid], the IC50 amounted to 0.79 nM.
As to `C[C@H](NC(=O)CCc1ccc(-c2ccc(CCN3CCC[C@H]3C)cc2)cc1)C(=O)OC(C)(C)C` [Compound 13, (S)-tert-Butyl 2-(3-(4′-(2-((R)-2-Methylpyrrolidin-1-yl)ethyl)biphenyl-4-yl)propanamido)propanoate], the IC50 turned out to be 2.1 nM.
For the compound `C[C@@H]1CCCN1CCc1ccc(-c2ccc(CCn3ncnn3)cc2)cc1` [Compound 8, (R)-2-(2-(4′-(2-(2-Methylpyrrolidin-1-yl)ethyl)biphenyl-4-yl)ethyl)-2H-tetrazole], the IC50 worked out at 1.2 nM.
On to `CCOC(=O)CCc1ccc(-c2ccc(CCN3CCC[C@H]3C)cc2)cc1` [Compound 11, (R)-Ethyl 3-(4′-(2-(2-Methylpyrrolidin-1-yl)ethyl)biphenyl-4-yl)propanoate], for which the IC50 turned out to be 1.8 nM.
As to `CCOC(=O)C1CCCCC1NC(=O)C1(c2ccc(-c3ccc(CCN4CCC[C@H]4C)cc3)cc2)CCCC1` (stereo in doubt) [Compound 20, (1R,2S)-Ethyl 2-(1-(4′-(2-((R)-2-Methylpyrrolidin-1-yl)ethyl)biphenyl-4-yl)cyclopentanecarboxamido)cyclohexanecarboxylate], the IC50 was 3 nM.
Still for that read-out and setting: under `C[C@@H]1CCCN1CCc1ccc(-c2ccc(CCn3cnnn3)cc2)cc1` [Compound 7, (R)-1-(2-(4′-(2-(2-Methylpyrrolidin-1-yl)ethyl)biphenyl-4-yl)ethyl)-1H-tetrazole] stands 0.93 nM; under `COC(=O)C(C)(C)NC(=O)c1ccc(-c2ccc(CCN3CCC[C@H]3C)cc2)cc1` [Compound 38, (R)-Methyl 2-Methyl-2-(4′-(2-(2-methylpyrrolidin-1-yl)ethyl)biphenyl-4-ylcarboxamido)propanoate], 1.2 nM; under `C[C@@H]1CCCN1CCc1ccc(-c2ccc(C3(C(=O)NCCCC(=O)O)CCCC3)cc2)cc1` [Compound 33, (R)-4-(1-(4′-(2-(2-Methylpyrrolidin-1-yl)ethyl)biphenyl-4-yl)cyclopentanecarboxamido)butanoic Acid], 2.1 nM.
The same measure, in the same setting: under `COC(=O)CCc1ccc(-c2ccc(CCN3CCC[C@H]3C)cc2)cc1` [Compound 9, (R)-Methyl 3-(4′-(2-(2-Methylpyrrolidin-1-yl)ethyl)biphenyl-4-yl)propanoate] stands 1.1 nM; under `C[C@@H]1CCCN1CCc1ccc(-c2ccc(Cc3nnn[nH]3)cc2)cc1` [Compound 37, (R)-5-((4′-(2-(2-Methylpyrrolidin-1-yl)ethyl)biphenyl-4-yl)methyl)-1H-tetrazole], 0.78 nM.

A further assay concerns histamine-induced scratching behavior in mice. As to the kind of experiment: Histamine-induced model for pruritus (Example 6). In kind it is in vivo, C57BL/6j male mice. The conditions noted are these: oral administration, histamine s.c. 30 min post-dosing, bouts counted 5-15 min, FIG. 6. Here is the method:
H3R inhibitors, Compound 3 and Compound 11, were dissolved in 0.5% methylcellulose at the appropriate concentration and 100 μL were administered orally to 8-week-old C57BL/6j male mice. Thirty minutes post-dosing, 25 μL of 40 mg/mL histamine solution was injected subcutaneously at the rostral part of the back. Mice were video recorded and the number of scratching bouts that occurred between 5 and 15 minutes was counted after histamine injection.
Turning to `CCOC(=O)CCc1ccc(-c2ccc(CCN3CCC[C@H]3C)cc2)cc1` [Compound 11, (R)-Ethyl 3-(4′-(2-(2-Methylpyrrolidin-1-yl)ethyl)biphenyl-4-yl)propanoate], the “histamine-induced scratching behavior (number of scratching bouts)” value was “effectively inhibit histamine-induced pruritus; also recorded: inhibit histamine-induced scratching behavior”.

In general, IC50 refers to the concentration that inhibits the measured activity by half.
